Data on ten compounds can be found in patent publication US11180528B2 (priority 2018, dated 2021).

One may read the EC50 as the concentration needed to bring the measured effect to its halfway point. Read a high EC50 as lower potency in that assay. As usually defined, the MIC is the lowest concentration found to suppress growth. For orientation: inhibition means how much of the control response was suppressed.

In brackets after ≈: the same amount, converted by molar mass. Entries after “also recorded” stand apart in the source; their conditions may differ. Where two headings read alike, the source gives them in different places. Ends that are not written are not given here.

Series [1] relates to F. tularensis LVS.
Series [2] concerns F. tularensis tularensis SchuS4.
The subject of series [3] is F. tularensis LVS. The conditions noted are these: mouse, in vivo.
Series [4] concerns F. tularensis LVS. The settings on record: mouse, in vivo; cited from earlier work.
The test system of series [5] is F. tularensis LVS. The source holds these as a separate data set.
For series [6], the system named is F. tularensis tularensis SchuS4. The source holds these as a separate data set.
The test system of series [7] is A549 human lung epithelial cells.
The next series deals with G. mellonella larvae. The settings on record: in vivo.
In series [8] the test system is F. tularensis LVS. Type of series: cell-based, Francisella tularensis subsp. holarctica.
The test system of series [9] is F. tularensis LVS. The series is classed as cell-based, Francisella tularensis subsp. holarctica. The source holds these as a separate data set.
The next series relates to F. tularensis LVS LPS. The series is classed as binding, Francisella tularensis subsp. holarctica.
The next series concerns E. coli LPS. The series is classed as binding.
In series [10] the test system is F. tularensis LVS. Also noted: species or system Galleria mellonella. The conditions noted are these: in vivo.

With `CC[C@H](C)[C@H](NC(=O)[C@H](CCCCN)NC(=O)[C@H](CCC(=O)O)NC(=O)[C@H](CCCCN)NC(=O)[C@H](CO)NC(=O)[C@H](CCCCN)NC(=O)[C@H](CCCNC(=N)N)NC(=O)[C@H](Cc1ccccc1)NC(=O)[C@H](Cc1ccccc1)NC(=O)[C@H](CC(=O)O)NC(=O)CNC(=O)[C@H](CC(C)C)NC(=O)[C@@H](N)CC(C)C)C(=O)NCC(=O)N[C@@H](CCCCN)C(=O)N[C@@H](CCC(=O)O)C(=O)N[C@@H](Cc1ccccc1)C(=O)N[C@@H](CCCCN)C(=O)N[C@@H](CCCNC(=N)N)C(=O)N[C@H](C(=O)N[C@H](C(=O)N[C@@H](CCC(N)=O)C(=O)N[C@@H](CCCNC(=N)N)C(=O)N[C@H](C(=O)N[C@@H](CCCCN)C(=O)N[C@@H](CC(=O)O)C(=O)N[C@@H](Cc1ccccc1)C(=O)N[C@@H](CC(C)C)C(=O)N[C@@H](CCCNC(=N)N)C(=O)N[C@@H](CC(N)=O)C(=O)N[C@@H](CC(C)C)C(=O)N[C@H](C(=O)N1CCC[C@H]1C(=O)N[C@@H](CCCNC(=N)N)C(=O)N[C@H](C(=O)N[C@@H](CCC(=O)O)C(=O)N[C@@H](CO)C(=O)O)[C@@H](C)O)C(C)C)[C@@H](C)CC)C(C)C)[C@@H](C)CC` [LL-37], the “EC50 (95% CI)” value in the series with F. tularensis LVS [1] was determined as 0.209 µg/mL (≈ 0.0465 µM). The “EC50 (95% CI) [μg/ml]” value is given as 0.21 (0.14-0.31) μg/ml in the series with F. tularensis LVS [1], 0.13 (0.076-0.21) μg/ml in the series with F. tularensis NIH B38 and 0.562 (0.195 to 1.61) μg/ml in [2]. For the same compound, the EC50 in the series on F. tularensis LVS [1] (3 h) stood at 0.047 µM; in the series with F. tularensis NIH B38 (3 h) it was 0.028 µM; in series [2], 0.125 µM. Moreover, the “severity of signs of disease (health scores)” value in the series with F. tularensis LVS [3] is on record as “nor did these peptides lessen signs of disease”. Moreover, the “mean time till death and survival” value in the series on F. tularensis LVS [4] is “extended mean time till death but did not increase survival; also recorded: significantly extended mean time to death, but did not ultimately rescue any mice”.
As to NPKTRNWFSEHFKKVKEKLKDTFA [GATR-4], in the series with F. tularensis LVS [5], the “MIC / inhibitory activity in broth” value is “inactive”. In the series with F. tularensis LVS [1] (3 h), the EC50 was 3.7 µM and the “EC50 (95% CI)” value came out at 11.0 µg/mL. The “EC50 [μM]” value in the series with F. tularensis NIH B38 was “Not active”.
Take KFRNWFSQHWRRWRQRLRNTWA [GATR-6]: the “MIC” value in [6] was over 83.3 µg/mL. The EC50 in the series with F. tularensis LVS [1] (3 h) was 0.29 µM; in the series with F. tularensis NIH B38 (3 h), 0.051 µM; in [2], 10.4 µM. Besides, in the series with F. tularensis LVS [3], the “mean time till death (MTD)” value was found to be 6 days.
In the case of KFRNWFSQHFKKFKQKLKNTFA [GATR-3], the “MIC” value in [6] was over 83.3 µg/mL. The EC50 in the series with F. tularensis LVS [1] (3 h) was 0.19 µM; in the series with F. tularensis NIH B38 (3 h) it was 0.28 µM; in [2] it was 10 µM.
On to KFRNWFSEHFKKFKEKLKDTFA [GATR-1], for which, in the series on F. tularensis LVS [5], the “MIC / inhibitory activity in broth” value was “inactive”. For the same compound, the “EC50 (95% CI) [μg/ml]” value in the series with F. tularensis LVS [1] is 0.76 (0.54-1.1) μg/ml; with F. tularensis NIH B38 it was 16 (9.5-27) μg/ml. For the same compound, the results for the EC50 in the series with F. tularensis LVS [1] (3 h) and in the series on F. tularensis NIH B38 (3 h) were 0.26 µM and 5.62 µM, respectively.
Consider “FSTKTRNWFSEHFKKVKEKLKDTFA [Apo5, reference compound]”, for which the “EC50 (95% CI)” value with F. tularensis LVS [1] (3 h) is about 6 µg/mL; in the series on F. tularensis NIH B38 (3 h), about 16 µg/mL.
In the case of KTRNWFSQHFKKVKQKLKNTFA [GATR-2], the “MIC / inhibitory activity in broth” value against F. tularensis LVS [5] is “inactive”. The “EC50 (95% CI) [μg/ml]” value in the series on F. tularensis LVS [1] is on record as 2.4 (1.5-3.7) μg/ml; with F. tularensis NIH B38 it was 11 (7.7-15) μg/ml. Further, the EC50 in the series on F. tularensis LVS [1] (3 h) worked out at 0.86 µM; with F. tularensis NIH B38 (3 h), 3.9 µM.
In the case of RWRNWWSQRWRRWRQRLRNTWA [GATR-7], the inhibition with F. tularensis LVS [5] (41.5 μg/ml) came out at 85%. In addition, the “MIC” value in [6] is 41.7 µg/mL. Also, the concentration for a half-maximal effect (EC50) with F. tularensis LVS [1] (3 h) stood at 0.32 µM; in the series with F. tularensis NIH B38 (3 h) it was 0.53 µM; in series [2], 7.47 µM. The “suppression of cell proliferation” value in series [7] is “some statistically significant suppression of cell proliferation”. Besides, the “death of larvae (toxicity)” value in the series with G. mellonella larvae is “not found to have significant death”.
KTRNWFSEHFKKVKEKLKDTFA [Apo6]: the “dissipation of membrane potential” value in the series on F. tularensis LVS [8] is “dissipated the membrane potential”. For the same compound, the “pore formation (change in RFU)” value in the series on F. tularensis LVS [9] was “significant pore formation; also recorded: significant membrane disruption”. Further, the results for the LPS binding result with F. tularensis LVS LPS and in the series on E. coli LPS were “does not significantly bind” and “did not bind”, respectively. Besides, the “survival of infected larvae” value with F. tularensis LVS [10] amounted to 60%. Besides, the “MIC / inhibitory activity in broth” value in the series with F. tularensis LVS [5] is “no observable MIC”. Also, the “EC50 (95% CI)” value in the series with F. tularensis LVS [1] was 6.82 µg/mL; in the series on F. tularensis LVS [1] (3 h), about 6 µg/mL; in the series on F. tularensis NIH B38, 16.3 µg/mL; with F. tularensis NIH B38 (3 h), about 16 µg/mL. Also, the “EC50 (95% CI) [μg/ml]” value is listed as 6.8 (5.9-7.8) μg/ml in the series with F. tularensis LVS [1] and 16 (8.6-31) μg/ml in the series on F. tularensis NIH B38. Also, the figures for the EC50 in the series with F. tularensis LVS [1] (3 h) and with F. tularensis NIH B38 (3 h) were 2.5 µM and 5.89 µM, respectively. For the same compound, the “EC50 [μM]” value in series [2] was “Not active”. Moreover, the “efficacy in murine studies” value in the series with F. tularensis LVS [3] was “not reliably effective”.
For KFRNWFSQHWKKWKQKLKNTWA [GATR-5], the EC50 came to 0.26 µM with F. tularensis LVS [1] (3 h) and 0.65 µM in the series with F. tularensis NIH B38 (3 h). In the series with G. mellonella larvae, the “survival of larvae (toxicity)” value is recorded as 30%.
